Here are results for 33 compounds from patent US20170152245A1 (National Taiwan University, priority 2015, published 2017).

In the assay the test system is human platelet suspension. In words: U46619-induced platelet aggregation in human platelet suspension. Format: cell-based. The settings on record: Homo sapiens, Platelet, U46619-induced aggregation, platelet suspension; read-out: P.S(U46619) IC50. On the procedure: Human platelet suspension (PS) was prepared according to the method described previously. Briefly, blood sample, freshly obtained from healthy volunteers who had taken no medications during the preceding 2 weeks, was treated with acid citrate/dextrose (ACD) in a volume ratio of 9:1. After centrifugation at 120 g, 25° C. for 9 min, platelet-rich plasma was transferred into another plastic tube and incubated with heparin (6.4 U/ml) as well as prostaglandin E1 (1 μM). Platelets were spun down by centrifugation at 500 g, 25° C. for 8 min and subsequently washed two times with Tyrode solution (NaH2PO4 0.4 mM; NaCl 136.9 mM; KCl […]; NaHCO3 11.9 mM; CaCl2 2 mM; MgCl2 2.1 mM; glucose 11.1 mM; BSA 3.5 mg/ml; pH 7.35-7.4). The washed platelets were finally suspended in Tyrode's solution and the platelet count was adjusted to 3.75×10^8 platelets/ml. For platelet-rich plasma (PRP) preparation, whole blood was anticoagulated with 1/10 vol of sodium citrate (3.8%, w/v) and centrifuged at 150 g, 25° C. for 9 min.
Platelet aggregation was measured turbidimetrically with a Lumi-aggregometer (Payton Scientific) at 37° C. under stirring condition (900 rpm). Platelet suspensions were prewarmed to 37° C. for 2 min in a silicone-treated glass cuvette. Nstpbp5185 was added 3 min before the addition of platelet-aggregation inducers. The extent of platelet aggregation was determined by recording the increase of light transmission relative to that of control (maximal aggregation, as 100%) for 6 min after the addition of inducer. The final volume and platelet count for measuring platelet aggregation were 500 μl and 3×10^8/ml, respectively.

Turning to `Cc1ccc(-c2nc3cc(Cl)ccc3n2Cc2cccc(F)c2)o1` [Example 47a, 5-chloro-1-(3-fluorobenzyl)-2-(5-methyl-2-furyl)benzimidazole], the IC50 was 5.55 µM.
To `Cc1ccc(-c2nc3ccc(Cl)cc3n2Cc2cccc(F)c2)o1` [Example 47b, 6-chloro-1-(3-fluorobenzyl)-2-(5-methyl-2-furyl)benzimidazole] belongs 4.42 µM; to `Cc1ccc(-c2nc3cc(Cl)ccc3n2Cc2ccccc2F)o1` [Example 48a, 5-chloro-1-(2-fluorobenzyl)-2-(5-methyl-2-furyl)benzimidazole], 6.7 µM; to `Cc1ccc(-c2nc3ccc(Cl)cc3n2Cc2ccccc2F)o1` [Example 48b, 6-chloro-1-(2-fluorobenzyl)-2-(5-methyl-2-furyl)benzimidazole], 3.11 µM.
Consider `COc1ccc(Cn2c(-c3ccc(C)o3)nc3ccc(Cl)cc32)cc1` [Example 49b, 6-chloro-1-(4-methoxybenzyl)-2-(5-methyl-2-furyl)benzimidazole], for which the IC50 came to 29.6 µM.
In the case of `COc1cccc(Cn2c(-c3ccc(C)o3)nc3cc(Cl)ccc32)c1` [Example 50a, 5-chloro-1-(3-methoxybenzyl)-2-(5-methyl-2-furyl)benzimidazole], the IC50 was determined as 38 µM.
Regarding `COc1cccc(Cn2c(-c3ccc(C)o3)nc3ccc(Cl)cc32)c1` [Example 50b, 6-chloro-1-(3-methoxybenzyl)-2-(5-methyl-2-furyl)benzimidazole], the IC50 is 27.4 µM.
On to `Cc1ccc(Cn2c(-c3ccc(C)o3)nc3ccc(Cl)cc32)cc1` [Example 51a, 6-chloro-1-(4-methylbenzyl)-2-(5-methyl-2-furyl)benzimidazole], for which the IC50 was determined as 53.4 µM.
With `Cc1ccc(Cn2c(-c3ccc(C)o3)nc3cc(Cl)ccc32)cc1` [Example 51b, 5-chloro-1-(4-methylbenzyl)-2-(5-methyl-2-furyl)benzimidazole] the figure was 62.8 µM.
To `Cc1cccc(Cn2c(-c3ccc(C)o3)nc3cc(Cl)ccc32)c1` [Example 52a, 5-chloro-1-(3-methylbenzyl)-2-(5-methyl-2-furyl)benzimidazole] belongs 29.9 µM; to `Cc1cccc(Cn2c(-c3ccc(C)o3)nc3ccc(Cl)cc32)c1` [Example 52b, 6-chloro-1-(3-methylbenzyl)-2-(5-methyl-2-furyl)benzimidazole], 5.22 µM; to `Cc1ccc(-c2nc3cc(Cl)ccc3n2Cc2ccccc2C)o1` [Example 53a, 5-chloro-1-(2-methylbenzyl)-2-(5-methyl-2-furyl)benzimidazole], 6.01 µM.
In the case of `Cc1ccc(-c2nc3ccc(Cl)cc3n2Cc2ccccc2C)o1` [Example 53b, 6-chloro-1-(2-methylbenzyl)-2-(5-methyl-2-furyl)benzimidazole], the IC50 was determined as 3.2 µM.
To `Cc1ccc(-c2nc3cc(Cl)c(Cl)cc3[nH]2)o1` [Example 54, 5,6-dichloro-2-(5-methyl-2-furyl)benzimidazole] belongs 5.13 µM; to `Cc1ccc(-c2nc3cc(Cl)c(Cl)cc3n2Cc2ccccc2)o1` [Example 54a, 1-Benzyl-5,6-dichloro-2-(5-methyl-2-furyl)benzimidazole], 6.98 µM; to `Cc1ccc(-c2nc3cc(Cl)c(Cl)cc3n2Cc2ccc([N+](=O)[O-])cc2)o1` [Example 55, 5,6-dichloro-1-(4-nitrobenzyl)-2-(5-methyl-2-furyl)benzimidazole], greater than 50 µM.
With `Cc1ccc(-c2nc3cc(Cl)c(Cl)cc3n2Cc2cccc([N+](=O)[O-])c2)o1` [Example 56, 5,6-dichloro-1-(3-nitrobenzyl)-2-(5-methyl-2-furyl)benzimidazole] the figure was 27 µM; with `Cc1ccc(-c2nc3cc(Cl)c(Cl)cc3n2Cc2ccccc2[N+](=O)[O-])o1` [Example 57, 5,6-dichloro-1-(2-nitrobenzyl)-2-(5-methyl-2-furyl)benzimidazole], greater than 50 µM.
With `Cc1ccc(-c2nc3cc(Cl)c(Cl)cc3n2Cc2ccc(Cl)cc2)o1` [Example 58, 5,6-Dichloro-1-(4-chlorobenzyl)-2-(5-methyl-2-furyl)benzimidazole] the figure was 9.56 µM; with `Cc1ccc(-c2nc3cc(Cl)c(Cl)cc3n2Cc2cccc(Cl)c2)o1` [Example 59, 5,6-dichloro-1-(3-chlorobenzyl)-2-(5-methyl-2-furyl)benzimidazole], 3.74 µM.
In the case of `Cc1ccc(-c2nc3cc(Cl)c(Cl)cc3n2Cc2ccccc2Cl)o1` [Example 60, 5,6-dichloro-1-(2-chlorobenzyl)-2-(5-methyl-2-furyl)benzimidazole], the IC50 was 42.9 µM.
With `COc1ccc(Cn2c(-c3ccc(C)o3)nc3cc(Cl)c(Cl)cc32)cc1` [Example 61, 5,6-dichloro-1-(4-methoxybenzyl)-2-(5-methyl-2-furyl)benzimidazole] the figure was 26.9 µM.
Take `COc1cccc(Cn2c(-c3ccc(C)o3)nc3cc(Cl)c(Cl)cc32)c1` [Example 62, 5,6-Dichloro-1-(3-methoxybenzyl)-2-(5-methyl-2-furyl)benzimidazole]: the 50% inhibitory concentration (IC50) was 8.88 µM.
With `Cc1ccc(-c2nc3cc(Cl)c(Cl)cc3n2Cc2ccc(F)cc2)o1` [Example 63, 5,6-dichloro-1-(4-fluorobenzyl)-2-(5-methyl-2-furyl)benzimidazole] the figure was 2.68 µM; with `Cc1ccc(-c2nc3cc(Cl)c(Cl)cc3n2Cc2cccc(F)c2)o1` [Example 64, 5,6-dichloro-1-(3-fluorobenzyl)-2-(5-methyl-2-furyl)benzimidazole], 1.74 µM.
To `Cc1ccc(-c2nc3cc(Cl)c(Cl)cc3n2Cc2ccccc2F)o1` [Example 65, 5,6-dichloro-1-(2-fluorobenzyl)-2-(5-methyl-2-furyl) benzimidazole] belongs 8.32 µM.
With `Cc1ccc(Cn2c(-c3ccc(C)o3)nc3cc(Cl)c(Cl)cc32)cc1` [Example 66, 5,6-dichloro-1-(4-methylbenzyl)-2-(5-methyl-2-furyl)benzimidazole] the figure was 40.3 µM; with `Cc1cccc(Cn2c(-c3ccc(C)o3)nc3cc(Cl)c(Cl)cc32)c1` [Example 67, 5,6-dichloro-1-(3-methylbenzyl)-2-(5-methyl-2-furyl)benzimidazole], 6.52 µM.
Take `Cc1ccc(-c2nc3cc(Cl)c(Cl)cc3n2Cc2ccccc2C)o1` [Example 68, 5,6-dichloro-1-(2-methylbenzyl)-2-(5-methyl-2-furyl)benzimidazole]: the IC50 came out at 5.69 µM.
With `Cc1ccc(-c2nc3ccc(C(=O)c4ccccc4)cc3[nH]2)o1` [Example 69, 6-benzoyl-2-(5-methyl-2-furyl)benzimidazole] the figure was greater than 50 µM.
To `Cc1ccc(-c2nc3ccc(C(=O)c4ccccc4)cc3n2Cc2ccccc2)o1` [Example 69a, 1-Benzyl-6-benzoyl-2-(5-methyl-2-furyl)benzimidazole] belongs 17.2 µM.
With `Cc1ccc(-c2nc3ccc(C(=O)c4ccccc4)cc3n2Cc2ccc(Cl)cc2)o1` [Example 73, 6-Benzoyl-1-(4-chlorobenzyl)-2-(5-methyl-2-furyl)benzimidazole] the figure was greater than 50 µM; with `Cc1ccc(-c2nc3ccc(C(=O)c4ccccc4)cc3n2Cc2cccc(Cl)c2)o1` [Example 74, 6-benzoyl-1-(3-chlorobenzyl)-2-(5-methyl-2-furyl)benzimidazole], 19.2 µM.

In general, IC50 refers to the point on the concentration scale where inhibition reaches its midpoint.
